The values below come from publication PMC3431965 (The Journal of organic chemistry, 2012).

The IC50 is the point on the concentration scale where inhibition reaches its midpoint.

Assay [1] concerns the target α-glucosidase (Saccharomyces cerevisiae). Put plainly: Glycosidase inhibition assay, α-glucosidase. Format: biochemical. Particulars: read-out: α-Glc IC50; substrate at Km.
Another assay relates to spermatogenesis. The settings on record: C57B1/6J-related mouse strains; cited from earlier work.
The next assay relates to human spermatogenesis. Particulars: cited from earlier work.

Take `CCCCN1C[C@H](O)[C@@H](O)[C@H](O)[C@H]1CO` [NB-DNJ, N-butyldeoxynojirimycin]: the IC50 in assay [1] was found to be 1.03 mM. For the same compound, the effect on spermatogenesis result with spermatogenesis is recorded as “active”. For the same compound, the “effects on human spermatogenesis” value in the assay on human spermatogenesis is on record as “no discernible effects”.
